Measured values published in patent publication US20060153782A1, “Skin photoageing and actinic damage treatment” (Novogen Research Pty Ltd, priority 2002, published 2006).

Columns and labels:
skin thickness = experiment: Skin thickness of hairless mice after chronic UV exposure; assay type: in vivo; conditions: hairless mice treated either before or after chronic UV exposure, vs non-treated mice
Source text: Increased skin thickness may be associated with wrinkles, capillary dilation in skin and skin dryness, as well as actinic damage.

CPD+ve epidermal cells = experiment: Cyclobutane pyrimidine dimers (CPD) in UV-irradiated human skin; assay type: in vivo; conditions: human subject; equol treated skin post-UVR compared with vehicle-only treated skin
Source text: The formation of CPD's, which occurs immediately on UV exposure (Viv Reeve, pers comm) would be unaffected by any therapeutic agent applied post-UVR. However, the rate of repair of CPDs might be increased by equol. If this occurred, fewer CPDs in equol treated skin compared with the number in vehicle-only treated skin would be observed. [drawing 5] Equol (CAS No. 531-95-3)

| Compound | skin thickness (skin thickness) | percentage of CPD+ve epidermal cells (CPD+ve epidermal cells) |
| --- | --- | --- |
| Oc1ccc(C2=Cc3ccc(O)cc3OC2)cc1 [dehydroequol] | decreased skin thickness | – |
| Oc1ccc(C2COc3cc(O)ccc3C2)cc1 (stereo not drawn) [equol, Equol] | decreased skin thickness | lower percentage of CPD+ve epidermal cells |
